Source: ChEMBL document CHEMBL1125442, “Amide bond replacements incorporated into CCK-B selective "dipeptoids"” (J Med Chem, 1992)
“And” between values parts separate entries of the source, which are not always exact repeats. Equal values may be shown once.

Experiments:
[1] = Selectivity ratio defined as the ratio of IC50(CCK-A)/IC50(CCK-B)
[2] = molecular target: Cholecystokinin receptor type A (Rattus norvegicus) (UniProt P30551); assay: Inhibition of [125I]CCK-8 binding to cholecystokinin type A receptor in the rat pancreas
[3] = molecular target: Gastrin/cholecystokinin type B receptor (Mus musculus) (UniProt P56481); assay: Inhibition of [125I]CCK-8 binding to cholecystokinin type B receptor in the mouse cerebral cortex

Ratio [1] | IC50 [2] | IC50 [3] | Structure (SMILES)
1.3 | 1080 nM | 852 nM | O=C(NC(Cc1c[nH]c2ccccc12)C(=O)NC(CO)Cc1ccccc1)OC1[C@H]2C[C@@H]3C[C@@H](C[C@H]1C3)C2 (some centres not stated)
1.2 | – | – | O=C(NC(Cc1c[nH]c2ccccc12)/C(S)=N/C(CO)Cc1ccccc1)OC1[C@H]2C[C@@H]3C[C@@H](C[C@H]1C3)C2 (some centres not stated)
0.11 | 1250 nM | 11500 nM | O=C(NC(CNC(CO)Cc1ccccc1)Cc1c[nH]c2ccccc12)OC1[C@H]2C[C@@H]3C[C@@H](C[C@H]1C3)C2 (some centres not stated)
1.6 | 2950 nM | 1890 nM | O=C(NC(Cc1c[nH]c2ccccc12)C(=O)OC(CO)Cc1ccccc1)OC1[C@H]2C[C@@H]3C[C@@H](C[C@H]1C3)C2 (some centres not stated)
0.74 | 1080 nM | 1460 nM | CN(C(=O)C(Cc1c[nH]c2ccccc12)NC(=O)OC1[C@H]2C[C@@H]3C[C@@H](C[C@H]1C3)C2)C(CO)Cc1ccccc1 (some centres not stated)
– | 1980 nM | 1590 nM | O=C(NC(Cc1c[nH]c2ccccc12)C(=S)NC(CO)Cc1ccccc1)OC1[C@H]2C[C@@H]3C[C@@H](C[C@H]1C3)C2 (some centres not stated)
2 | 1070 nM | 547 nM | CC(Cc1c[nH]c2ccccc12)(NC(=O)OC1[C@H]2C[C@@H]3C[C@@H](C[C@H]1C3)C2)C(=O)OCCc1ccccc1 (some centres not stated)

More lines, now with the values behind:

Structure (SMILES) | Ratio [1] | IC50 [2] | IC50 [3]
CN(CCc1ccccc1)C(=O)C(C)(Cc1c[nH]c2ccccc12)NC(=O)OC1[C@H]2C[C@@H]3C[C@@H](C[C@H]1C3)C2 (some centres not stated) | 6.2 | 757 nM | 123 nM
CC(CCCCc1ccccc1)(Cc1c[nH]c2ccccc12)NC(=O)OC1[C@H]2C[C@@H]3C[C@@H](C[C@H]1C3)C2 (some centres not stated) | 2.2 | 19500 nM | 8690 nM
COC(=O)CCC(=O)N[C@H](COC(=O)C(C)(Cc1c[nH]c2ccccc12)NC(=O)OC1[C@H]2C[C@@H]3C[C@@H](C[C@H]1C3)C2)c1ccccc1 (some centres not stated) | 4.9 | 351 nM | 71.2 nM
CC(Cc1c[nH]c2ccccc12)(NC(=O)OC1[C@H]2C[C@@H]3C[C@@H](C[C@H]1C3)C2)C(O)CCCc1ccccc1 (some centres not stated) [listing 1 of 3 here] | 1.3 and 2.1 | – | –
CC(Cc1c[nH]c2ccccc12)(CN(CCc1ccccc1)C(=O)CCC(=O)O)NC(=O)OC1[C@H]2C[C@@H]3C[C@@H](C[C@H]1C3)C2 (some centres not stated) | 0.85 | 1080 nM | 1270 nM
CC(Cc1c[nH]c2ccccc12)(NC(=O)OC1[C@H]2C[C@@H]3C[C@@H](C[C@H]1C3)C2)C(=S)NCCc1ccccc1 (some centres not stated) | – | 1500 nM | 808 nM
CC(Cc1c[nH]c2ccccc12)(NC(=O)OC1[C@H]2C[C@@H]3C[C@@H](C[C@H]1C3)C2)C(O)CCCc1ccccc1 (some centres not stated) [listing 2 of 3 here] | – | 1230 nM | 595 nM
CC(Cc1c[nH]c2ccccc12)(NC(=O)OC1[C@H]2C[C@@H]3C[C@@H](C[C@H]1C3)C2)C(=O)SCCc1ccccc1 (some centres not stated) | 1.3 | 1190 nM | 932 nM
CCOC(=O)CCC(=O)N(CCc1ccccc1)CC(C)(Cc1c[nH]c2ccccc12)NC(=O)OC1[C@H]2C[C@@H]3C[C@@H](C[C@H]1C3)C2 (some centres not stated) | 2.3 | 670 nM | 1630 nM
CC(Cc1c[nH]c2ccccc12)(NC(=O)OC1[C@H]2C[C@@H]3C[C@@H](C[C@H]1C3)C2)/C(S)=N/CCc1ccccc1 (some centres not stated) | 1.9 | – | –
CC(Cc1c[nH]c2ccccc12)(NC(=O)OC1[C@H]2C[C@@H]3C[C@@H](C[C@H]1C3)C2)C(O)CCCc1ccccc1 (some centres not stated) [listing 3 of 3 here] | – | 2620 nM | 1970 nM
CCOC(=O)CCCCCC(=O)N(CCc1ccccc1)CC(C)(Cc1c[nH]c2ccccc12)NC(=O)OC1[C@H]2C[C@@H]3C[C@@H](C[C@H]1C3)C2 (some centres not stated) | 4.1 | 3530 nM | 863 nM
